Assay results taken from patent publication US20060069038A1, “Irreversible caspase-3 inhibitors as active site probes” (priority 2003, published 2006).
Where two headings read alike, the source gives them in different places.

How the values were obtained:
active caspases = experiment: In vivo labeling of active caspases with [125I]-M808 in CLP-operated mice (thymi extracts); design: species or system mouse; details: i.v. injection in CLP mice, radiolabeled p17 in thymi, FIG. 6
Experimental: FIG. 6. A-Schematic representation of in vivo labeling of active caspases with [^125I]-M808 in CLP-operated mice. Mice underwent either sham surgery (n=2) or CLP surgery (n=5). [^125I]-M808 was injected intravenously 23.15 h later, and animals were euthanized 24 h post-surgery. B-Caspase-3 western blot of mouse thymi extracts following CLP and administration of [^125I]-M808. Arrows indicate full length pro-caspase-3 (p32) and the processed caspase large subunit (p17). C— in-vivo [^125I]-M808-labeled protein in thymi extracts from septic mice. Arrow points to a radiolabeled caspase large subunit.
Female Sprague-Dawley rats (250-300 g; Charles River, St-Constant, Qc, Canada) and ND4 mice (20-25 g Harlane Sprague-Dawley) were housed in a 12 hour light/dark cycle with free access to food and water. All procedures were carried out under appropriate Animal Care Committee approval in strict accordance to Merck and Co. animal care policies. For Cecal Ligation and Perforation, animals were anesthetized with 2.5% isoflurane and body temperature maintained by use of a thermoregulated heated blanket. A midline incision was made in the abdominal wall of the animal and the cecum exteriorized. The cecum was ligated with a nylon (4-0) suture proximal to the ileocecal valve. In mice, perforation of the cecum was done using a 23 g needle passed through the distal portion of the cecum. […]

caspase-3 = target: T1, caspase-3 (Rattus norvegicus, UniProt P55213); experiment: Caspase-3 western blot in cultured rat thymocytes; assay type: cell-based; details: FIG. 5B
T1 construct: endogenous in cells; host or cells: primary rat thymocytes (Sprague-Dawley), spontaneous apoptosis in culture
T1 sequence (P55213 29-175 limits assumed): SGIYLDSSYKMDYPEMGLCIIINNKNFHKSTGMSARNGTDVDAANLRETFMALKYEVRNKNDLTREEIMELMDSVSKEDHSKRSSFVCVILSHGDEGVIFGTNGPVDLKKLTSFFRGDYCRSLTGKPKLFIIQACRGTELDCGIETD
T1 sequence (P55213 176-277 limits assumed): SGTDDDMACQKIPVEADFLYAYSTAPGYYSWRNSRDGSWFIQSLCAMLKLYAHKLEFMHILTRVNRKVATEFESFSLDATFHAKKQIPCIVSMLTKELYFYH
Experimental: (§1) Rat thymocytes were cultured for 24 hours at a density of 10×10^6 cells/ml in CytoSF4 supplemented with 2 mM L-glutamine and penicillin-streptamycin and the indicated concentration of caspase inhibitors.
Denatured protein extracts in 1× Laemli buffer were resolved through a 18% acrylamide gradient SDS-PAGE gel (Invitrogen) at 30 mA in Tris-Glycine buffer. Samples labeled with [^125I]-M808 were migrated until the dye front reached 0.5 cm above the end of the gel, and acrylamide 1 cm above the dye front was cut out to remove all free [^125I]-M808 and reduce background. The gels were fixed for 45 minutes in a 40% Methanol-10% Acetic acid solution and dried for 90 min at 80° C. before exposure on MS Kodak film with MS intensifying screens. For Western blotting, proteins were transferred onto a […] nitrocellulose membrane (Invitrogen) in Tris-Glycine-20% methanol buffer at 40V for 2 hours. Non-specific protein binding was minimized by incubating the membranes for 1 hour in blocking buffer (5% non-fat milk/TBS/0.1% Tween-20). Anti-caspase-3 (W R280 and MF467) were diluted 2000-fold in blocking buffer and incubated for 1 hour at 25° C. […] Densitometry was performed using a BioRad instrument and QuantityOne software. […]

rat thymocytes = experiment: DNA fragmentation (flow cytometry) in cultured rat thymocytes; assay type: cell-based; details: for IC50: Rattus norvegicus, Thymocyte
Experimental: as §1
DNA fragmentation was determined by flow cytometry on 1.5×10^6 thymocytes or 500,000 Jurkat cells fixed for 30 min on ice in 80% EtOH. The cells were pelleted by centrifugation at 300 g for 10 min, suspended in PBS and incubated on ice for 45 min. […] Several dilutions were prepared for each sample to ensure that signal would be found within the assays linear range.

Row | IC50 (rat thymocytes; cultured rat thymocytes, experiment of FIG. 5, read-out: IC50, inhibition of DNA fragmentation) | IC50 (rat thymocytes; cultured thymocytes, N. Methot et al., in press, p<0.01 vs spectrin cleavage, read-out: IC50, inhibition of DNA fragmentation) | IC50 (rat thymocytes; five independent experiments, read-out: DNA fragmentation IC50) | SMILES | detection of active caspases in vivo (active caspases) | impact on caspase-3 cleavage (caspase-3) | M867 required to inhibit DNA fragmentation compared to spectrin cleavage (rat thymocytes; ratio of IC50s)
1 | – | – | – | COc1ccc(I)cc1CC(=O)N[C@H](C(=O)NC(CC(=O)O)C(=O)CF)C(C)C (stereo partly drawn) [[^125I]-M808, 5-fluoro-3-({N-[(5-iodo-2-methoxyphenyl)acetyl]-L-valyl}amino)-4-oxopentanoic acid] | can detect active caspases in vivo | – | –
2 | 240 nM | 270 nM | 270 nM | CCCCCN(C)CC(=O)[C@H](CC(=O)O)NC(=O)[C@H](CC)n1cc(C(C)(C)C)nc(NCc2nonc2C)c1=O [Example M867, (3S)-3-({(2S)-2-[5-tert-butyl-3-{[(4-methyl-1,2,5-oxadiazol-3-yl)methyl]amino}-2-oxopyrazin-1(2H)-yl]butanoyl}amino)-5-[methyl(pentyl)amino]-4-oxopentanoic acid] | – | minimal impact on caspase-3 cleavage except at the highest concentration | Three-fold
